According to publication PMC4163838 (The Biochemical journal, 2014):

What was measured:
[1] = target: T1, AKR1D1 (human steroid 5β-reductase) (Homo sapiens, UniProt P51857); assay: fluorescence titration; assay type: binding
T1 sequence (P51857 1-326): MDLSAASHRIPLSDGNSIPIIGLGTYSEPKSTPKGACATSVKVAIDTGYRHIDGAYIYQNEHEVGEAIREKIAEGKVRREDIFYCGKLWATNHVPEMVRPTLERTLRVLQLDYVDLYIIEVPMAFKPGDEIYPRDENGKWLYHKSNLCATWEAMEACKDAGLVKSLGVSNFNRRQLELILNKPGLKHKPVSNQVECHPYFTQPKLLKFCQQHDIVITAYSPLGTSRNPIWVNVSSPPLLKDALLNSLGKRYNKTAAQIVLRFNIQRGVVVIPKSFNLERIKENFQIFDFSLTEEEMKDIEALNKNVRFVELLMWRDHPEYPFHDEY

[2] = target: T1, AKR1D1 (human steroid 5β-reductase); assay: stopped-flow binding, energy transfer fluorescence; conditions: biphasic binding to free enzyme; 37 °C, pH 6.0, 4 % acetonitrile
[3] = target: T1, AKR1D1 (human steroid 5β-reductase); assay: stopped-flow competition with excess NADPH, energy transfer fluorescence; assay type: binding; conditions: dissociation rate constant from binary complex; 37 °C, pH 6.0, 4 % acetonitrile

## CC(C)CCC[C@@H](C)[C@H]1CC[C@H]2[C@@H]3[C@H](O)CC4=CC(=O)CC[C@]4(C)[C@H]3CC[C@]12C [7α-hydroxycholestenone, 7α-hydroxy-4-cholesten-3-one]
[1]
  Kd: 1300 ± 100 nM

## NC(=O)C1=CN([C@@H]2O[C@H](COP(=O)(O)OP(=O)(O)OC[C@H]3O[C@@H](n4cnc5c(N)ncnc54)[C@H](OP(=O)(O)O)[C@@H]3O)[C@@H](O)[C@H]2O)C=CC1 [NADPH]
[2]
  stopped-flow binding, energy transfer fluorescence: AKR1D1 was mixed with NADPH and the process of NADPH binding to AKR1D1 was directly monitored

## NC(=O)c1ccc[n+]([C@@H]2O[C@H](COP(=O)(O)OP(=O)(O)OC[C@H]3O[C@@H](n4cnc5c(N)ncnc54)[C@H](OP(=O)(O)O)[C@@H]3O)[C@@H](O)[C@H]2O)c1 [NADP^+]
[3]
  koff: 0.36 ± 0.01 s⁻¹

## CC(C)(C)NC(=O)[C@H]1CC[C@H]2[C@@H]3CC[C@H]4NC(=O)C=C[C@]4(C)[C@H]3CC[C@]12C [finasteride]
[1]
  Kd: 1140 ± 90 nM
